Source: paper PMC3271384 (Molecular Genetics and Metabolism, 2012)
Where a chain is given by its changes, count along the chain named.

What was measured:
AGT-Ma = molecular target: T1, AGT-Ma (Homo sapiens, UniProt P21549, S187F); test: intrinsic fluorescence; format: binding
T1 sequence (P21549 1-392 S187F): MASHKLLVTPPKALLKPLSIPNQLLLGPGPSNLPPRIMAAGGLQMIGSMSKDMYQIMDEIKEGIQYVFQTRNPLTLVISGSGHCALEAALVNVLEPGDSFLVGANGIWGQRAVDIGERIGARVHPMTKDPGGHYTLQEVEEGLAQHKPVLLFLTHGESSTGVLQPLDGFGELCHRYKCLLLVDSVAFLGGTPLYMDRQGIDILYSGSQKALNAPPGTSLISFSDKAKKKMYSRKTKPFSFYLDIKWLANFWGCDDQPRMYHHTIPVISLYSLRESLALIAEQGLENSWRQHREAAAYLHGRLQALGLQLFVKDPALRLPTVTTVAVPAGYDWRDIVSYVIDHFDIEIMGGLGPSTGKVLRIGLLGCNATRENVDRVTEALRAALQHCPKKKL

AGT-Mi = molecular target: T2, AGT-Mi (Homo sapiens, UniProt P21549, G161C/I340M/P11L); test: quenching of intrinsic fluorescence of apoenzyme; format: binding
T2 sequence (P21549 1-392 P11L/G161C/I340M): T1 sequence (P21549 1-392 S187F) with P11L, G161C, F187S, I340M

Kd (AGT-Ma): < 10 nM | Kd (AGT-Mi): 560 ± 90 nM
Structure (SMILES): Cc1ncc(COP(=O)(O)O)c(C=O)c1O [PLP]
